This is an account of results in PubChem BioAssay (NCI).

Structures are written as SMILES.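 Method: 48-hour compound exposure of cells in 96-well plates, five concentrations, linear interpolation of endpoints. GI50 marks 50% less growth. TGI denotes the concentration required for complete inhibition of growth.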

Test systems include NCI-H226 lung; EKVX NSCLC; TK-10 renal; MALME-3M melanoma; MDA-MB-435; UACC-62 melanoma; UACC-257 melanoma; HT29 colon; 786-0 renal; NCI/ADR-RES ovarian.
What all share (test): NCI tumour cell line growth inhibition, 48 h

As for `CCOC(=O)C1Cc2c(cc3c4c(cccc24)N(C(C)=O)C3)N(C)C1` (stereo unspecified), the TGI with NCI-H226 lung was 9.37 µM; with EKVX NSCLC, greater than 100 µM; in the test with TK-10 renal, greater than 100 µM; in the test on MALME-3M melanoma it was greater than 100 µM; with MDA-MB-435, 7.04 µM; in the test with UACC-62 melanoma, greater than 100 µM. Also, the TGI in the test on UACC-257 melanoma, with HT29 colon and with 786-0 renal was greater than 100 µM in each case.
Consider `c1ccc2sc(SCCSc3nc4ccccc4s3)nc2c1`, for which the TGI in the test on EKVX NSCLC, in the test on TK-10 renal, with MALME-3M melanoma, with NCI/ADR-RES ovarian, in the test with MDA-MB-435 and in the test with UACC-62 melanoma was greater than 100 µM in each case. Also, the TGI in the test with UACC-257 melanoma, with HT29 colon and in the test with 786-0 renal was greater than 100 µM in each case.
For the compound `Cc1nc2ccc(Nc3nc(Cl)nc(N4CCOCC4)n3)cc2n1Cc1ccccc1`, the GI50 was 7.88 µM in the test with NCI-H226 lung; 35.8 µM in the test on TK-10 renal; 5.24 µM in the test with MALME-3M melanoma; 4.43 µM with NCI/ADR-RES ovarian; 8.23 µM in the test on MDA-MB-435; 3.43 µM in the test with UACC-62 melanoma. For the same compound, the GI50 in the test on UACC-257 melanoma was 5.93 µM; in the test on 786-0 renal, 11.7 µM. The TGI with NCI-H226 lung is 48.9 µM; in the test with TK-10 renal, greater than 100 µM; with MALME-3M melanoma it was 24.5 µM; in the test with NCI/ADR-RES ovarian it was greater than 100 µM; in the test with MDA-MB-435 it was greater than 100 µM; with UACC-62 melanoma, 22.9 µM. Also, the TGI in the test with UACC-257 melanoma and in the test with 786-0 renal was greater than 100 µM in each case.
On to `COc1ccc(/C=C(/C#N)C(N)=O)c(OC)c1`, for which the TGI with NCI-H226 lung was greater than 100 µM; in the test with EKVX NSCLC, greater than 100 µM; with TK-10 renal it was greater than 100 µM; with NCI/ADR-RES ovarian, greater than 100 µM; in the test on MDA-MB-435 it was 48.5 µM; in the test with UACC-62 melanoma, greater than 100 µM. The TGI in the test with UACC-257 melanoma, in the test on HT29 colon and with 786-0 renal was greater than 100 µM each time.
For the compound `Cc1cc(S(=O)(=O)Nc2nc3ccccc3o2)c(SCc2ccccc2)cc1Cl`, the GI50 was 26.4 µM in the test with NCI-H226 lung; 21.9 µM in the test with EKVX NSCLC; 28.6 µM in the test with TK-10 renal; 20 µM with NCI/ADR-RES ovarian; 19.8 µM in the test with MDA-MB-435; 28.7 µM in the test on UACC-62 melanoma. The figures for the GI50 in the test with UACC-257 melanoma, in the test on HT29 colon and in the test on 786-0 renal were 21.2 µM, 33.8 µM and 20.8 µM, respectively. Moreover, the TGI was determined as 72.9 µM in the test with NCI-H226 lung; 55.8 µM with EKVX NSCLC; 90.7 µM with TK-10 renal; 40.9 µM with NCI/ADR-RES ovarian; 42.7 µM in the test with MDA-MB-435; 79.5 µM in the test on UACC-62 melanoma. Moreover, the results for the TGI in the test with UACC-257 melanoma, in the test on HT29 colon and in the test on 786-0 renal were 50.2 µM, greater than 100 µM and 47.2 µM, respectively.
As for `COC[C@@H](N=C1NC(=O)/C(=C/c2ccc3ncccc3c2)S1)c1ccccc1`, the GI50 in the test on NCI-H226 lung is 6.88 µM; in the test on MALME-3M melanoma, greater than 23.1 µM; with NCI/ADR-RES ovarian, 11.6 µM; in the test on MDA-MB-435, 9.12 µM; in the test with UACC-62 melanoma, 11.6 µM; in the test with UACC-257 melanoma it was 8.09 µM. The values for the GI50 in the test with HT29 colon and with 786-0 renal were 8.83 µM and 10.2 µM, respectively. Besides, the TGI with NCI-H226 lung, in the test with MALME-3M melanoma, in the test with NCI/ADR-RES ovarian, in the test with MDA-MB-435, in the test on UACC-62 melanoma and in the test on UACC-257 melanoma was greater than 25 µM throughout. Moreover, the TGI with HT29 colon and with 786-0 renal was greater than 25 µM throughout.
In the case of `COc1cc(Nc2nc3cc(N)cc(N)c3nc2-c2ccccc2)cc(OC)c1OC`, the GI50 in the test with EKVX NSCLC is 17.6 µM; in the test with TK-10 renal, 23.9 µM; in the test with MALME-3M melanoma it was 13 µM; in the test with NCI/ADR-RES ovarian, 14.4 µM; in the test on MDA-MB-435 it was 7.35 µM; with UACC-62 melanoma it was 13.6 µM. Further, the GI50 in the test on UACC-257 melanoma is 29.6 µM; with 786-0 renal, 14.6 µM. Also, the TGI turned out to be 47.4 µM with EKVX NSCLC; 66.5 µM in the test with TK-10 renal; 28.2 µM in the test with MALME-3M melanoma; 44.1 µM in the test with NCI/ADR-RES ovarian; 24.4 µM in the test on MDA-MB-435; 31.8 µM in the test on UACC-62 melanoma. The figures for the TGI in the test on UACC-257 melanoma, with HT29 colon and in the test with 786-0 renal were greater than 100 µM, 35 µM and 40.3 µM, respectively.
In the case of `Cc1nc([P+](c2ccccc2)(c2ccccc2)c2ccccc2)c(Sc2sc(-c3ccccc3)nc2[P+](c2ccccc2)(c2ccccc2)c2ccccc2)o1`, the GI50 with EKVX NSCLC was 1.1 µM; in the test on TK-10 renal, 2.09 µM; in the test on MALME-3M melanoma it was 1.36 µM; in the test on NCI/ADR-RES ovarian, 3.7 µM; in the test on MDA-MB-435, 1.19 µM; with UACC-62 melanoma, 1.51 µM. Besides, the values for the GI50 with UACC-257 melanoma, in the test with HT29 colon and with 786-0 renal were 2 µM, 0.861 µM and 2.34 µM, respectively. Moreover, the TGI was 5.64 µM in the test on EKVX NSCLC; 7.63 µM in the test with TK-10 renal; 7.13 µM in the test with MALME-3M melanoma; 19.8 µM in the test on NCI/ADR-RES ovarian; 3.46 µM with MDA-MB-435; 3.67 µM in the test on UACC-62 melanoma. The values for the TGI in the test on UACC-257 melanoma, in the test with HT29 colon and in the test on 786-0 renal were 8.81 µM, 10.6 µM and 11.2 µM, respectively.
For the compound `CC(=O)O[C@H]1C(=O)[C@@]2(C)C(C(OC(=O)c3ccccc3)[C@]3(O)C[C@H](OC(=O)C(OC(=O)CCCC(=O)NCCCN(C)C)C(NC(=O)c4ccccc4)c4ccccc4)C(C)=C1C3(C)C)C1(OC(C)=O)COC1C[C@@H]2O` (stereo partly specified), the TGI in the test with NCI-H226 lung was 39.1 µM; in the test with EKVX NSCLC, greater than 100 µM; with TK-10 renal it was 33.3 µM; in the test on MALME-3M melanoma it was 20.8 µM; in the test on NCI/ADR-RES ovarian it was 70.7 µM; with UACC-62 melanoma, 7 µM. Moreover, the TGI in the test on UACC-257 melanoma stood at 33.5 µM; with HT29 colon, 2.22 µM; with 786-0 renal, 11 µM.
